Data as given in publication PMC12090182, “Repurposing of the RIPK1-Selective Benzo[1,4]oxazepin-4-one Scaffold for the Development of a Type III LIMK1/2 Inhibitor” (ACS Chemical Biology, 2025).

Legend:
Format in all cases: binding
[1] = target: 468 kinases including some pathogenic mutants (Homo sapiens, UniProt O14965); assay: biochemical; details: AURKA (Entrez AURKA), 100 nM; read-out: Percent Control
[2] = target: 468 kinases including some pathogenic mutants (Homo sapiens, UniProt P53779); assay: biochemical; details: JNK3 (Entrez MAPK10), 100 nM; read-out: Percent Control
[3] = target: 468 kinases including some pathogenic mutants (Homo sapiens, UniProt P42680); assay: biochemical; details: TEC (Entrez TEC), 1000 nM; read-out: Percent Control
[4] = target: 468 kinases including some pathogenic mutants (Homo sapiens, UniProt O95835); assay: biochemical; details: LATS1 (Entrez LATS1), 100 nM; read-out: Percent Control
[5] = target: 468 kinases including some pathogenic mutants (Homo sapiens, UniProt P43405); assay: biochemical; details: SYK (Entrez SYK), 100 nM; read-out: Percent Control
[6] = target: 468 kinases including some pathogenic mutants (Homo sapiens, UniProt P42685); assay: biochemical; details: FRK (Entrez FRK), 100 nM; read-out: Percent Control
[7] = target: 468 kinases including some pathogenic mutants (Homo sapiens, UniProt O43318); assay: biochemical; details: TAK1 (Entrez MAP3K7), 100 nM; read-out: Percent Control
[8] = target: 468 kinases including some pathogenic mutants (Homo sapiens, UniProt P10721, L576P); assay: biochemical; details: read-out: Percent Control
[9] = target: 468 kinases including some pathogenic mutants (Homo sapiens, UniProt P16234); assay: biochemical; details: PDGFRA (Entrez PDGFRA), 100 nM; read-out: Percent Control
Sequence of 468 kinases including some pathogenic mutants (Homo sapiens, UniProt P16234) (P16234 24-1089, change not shown): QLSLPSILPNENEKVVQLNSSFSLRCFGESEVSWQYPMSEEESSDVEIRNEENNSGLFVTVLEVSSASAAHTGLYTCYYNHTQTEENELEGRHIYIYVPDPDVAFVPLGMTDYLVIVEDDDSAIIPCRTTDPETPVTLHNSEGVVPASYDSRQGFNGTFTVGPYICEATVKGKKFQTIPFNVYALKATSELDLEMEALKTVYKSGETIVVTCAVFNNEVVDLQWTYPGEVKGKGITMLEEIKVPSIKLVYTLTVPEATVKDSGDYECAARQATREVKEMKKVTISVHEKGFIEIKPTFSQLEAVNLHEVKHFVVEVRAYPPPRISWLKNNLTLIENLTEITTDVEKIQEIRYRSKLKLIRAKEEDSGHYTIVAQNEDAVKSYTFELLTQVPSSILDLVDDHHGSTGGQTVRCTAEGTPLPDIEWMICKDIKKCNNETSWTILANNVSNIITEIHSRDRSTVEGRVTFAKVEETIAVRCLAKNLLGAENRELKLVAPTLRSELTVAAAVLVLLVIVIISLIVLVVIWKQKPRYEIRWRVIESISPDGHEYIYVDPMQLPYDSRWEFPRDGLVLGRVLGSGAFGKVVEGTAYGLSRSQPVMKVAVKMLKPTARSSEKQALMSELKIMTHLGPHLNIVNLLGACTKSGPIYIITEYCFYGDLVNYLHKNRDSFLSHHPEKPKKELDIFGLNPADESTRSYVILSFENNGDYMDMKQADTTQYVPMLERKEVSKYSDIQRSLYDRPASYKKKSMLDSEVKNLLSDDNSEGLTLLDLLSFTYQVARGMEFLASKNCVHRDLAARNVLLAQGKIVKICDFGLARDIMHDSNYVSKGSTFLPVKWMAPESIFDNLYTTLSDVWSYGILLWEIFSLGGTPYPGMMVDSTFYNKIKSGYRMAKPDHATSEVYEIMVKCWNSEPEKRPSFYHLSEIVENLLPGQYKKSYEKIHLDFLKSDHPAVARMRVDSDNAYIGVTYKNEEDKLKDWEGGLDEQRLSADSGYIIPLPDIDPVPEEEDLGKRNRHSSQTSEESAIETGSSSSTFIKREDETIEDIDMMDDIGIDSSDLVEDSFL

[10] = target: 468 kinases including some pathogenic mutants (Homo sapiens, UniProt Q8TD19); assay: biochemical; details: NEK9 (Entrez NEK9), 100 nM; read-out: Percent Control
[11] = target: 468 kinases including some pathogenic mutants (Homo sapiens, UniProt P10721, D816V); assay: biochemical; details: read-out: Percent Control
[12] = target: 468 kinases including some pathogenic mutants (Homo sapiens, UniProt Q9H4B4); assay: biochemical; details: PLK3 (Entrez PLK3), 1000 nM; read-out: Percent Control
Sequence of 468 kinases including some pathogenic mutants (Homo sapiens, UniProt Q9H4B4) (Q9H4B4 whole entry, change not shown): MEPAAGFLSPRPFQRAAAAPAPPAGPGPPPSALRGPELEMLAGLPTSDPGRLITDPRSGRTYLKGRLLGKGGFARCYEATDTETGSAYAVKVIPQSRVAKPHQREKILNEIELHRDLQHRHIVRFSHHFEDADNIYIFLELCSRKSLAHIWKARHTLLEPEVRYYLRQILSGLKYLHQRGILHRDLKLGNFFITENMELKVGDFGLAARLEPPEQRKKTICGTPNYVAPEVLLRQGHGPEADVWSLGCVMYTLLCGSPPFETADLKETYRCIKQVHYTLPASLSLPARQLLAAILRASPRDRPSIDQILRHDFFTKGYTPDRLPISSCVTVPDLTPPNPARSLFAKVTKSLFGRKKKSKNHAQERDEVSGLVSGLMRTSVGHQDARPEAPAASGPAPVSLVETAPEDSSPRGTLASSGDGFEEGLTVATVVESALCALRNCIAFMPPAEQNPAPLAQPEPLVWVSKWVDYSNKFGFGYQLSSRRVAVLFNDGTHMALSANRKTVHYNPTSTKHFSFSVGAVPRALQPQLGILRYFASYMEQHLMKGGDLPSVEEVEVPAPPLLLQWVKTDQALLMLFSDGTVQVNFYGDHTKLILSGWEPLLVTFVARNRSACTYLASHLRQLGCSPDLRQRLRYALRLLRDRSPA

[13] = target: 468 kinases including some pathogenic mutants (Homo sapiens, UniProt P52333); assay: biochemical; details: JAK3(JH1domain-catalytic) (Entrez JAK3), 100 nM; read-out: Percent Control
[14] = target: 468 kinases including some pathogenic mutants (Homo sapiens, UniProt Q13188); assay: biochemical; details: MST2 (Entrez STK3), 100 nM; read-out: Percent Control
EGFR(E746-A750del) = EGFR(E746-A750del) (Homo sapiens, UniProt P00533, DEL746-750); assay: biochemical; details: read-out: Percent Control
Sequence of EGFR(E746-A750del) (P00533 other isoform, or with tags, fused parts or gaps DEL746-750): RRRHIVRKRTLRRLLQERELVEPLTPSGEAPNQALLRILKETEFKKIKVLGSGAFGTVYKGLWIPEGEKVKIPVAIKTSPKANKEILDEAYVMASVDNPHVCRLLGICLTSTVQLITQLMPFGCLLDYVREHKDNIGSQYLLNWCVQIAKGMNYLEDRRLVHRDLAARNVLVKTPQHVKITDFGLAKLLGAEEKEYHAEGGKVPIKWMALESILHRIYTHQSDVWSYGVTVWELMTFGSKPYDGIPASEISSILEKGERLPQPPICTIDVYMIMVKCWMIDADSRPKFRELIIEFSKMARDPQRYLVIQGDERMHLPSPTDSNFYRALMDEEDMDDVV

MAP3K2 = MAP3K2 (Homo sapiens, UniProt Q9Y2U5); assay: scanMAX KINOMEscan (Eurofins); details: compound concentration 100 nM; Entrez MAP3K2; read-out: Percent Control
Excerpt: (§1) Supplement cb5c00097_si_002.xlsx, sheet "Table S6 (Eurofins Selectivity)" | column: Percent Control

FGR = FGR (Homo sapiens, UniProt P09769); assay: scanMAX KINOMEscan (Eurofins); details: read-out: Percent Control
Sequence of FGR (P09769 whole entry): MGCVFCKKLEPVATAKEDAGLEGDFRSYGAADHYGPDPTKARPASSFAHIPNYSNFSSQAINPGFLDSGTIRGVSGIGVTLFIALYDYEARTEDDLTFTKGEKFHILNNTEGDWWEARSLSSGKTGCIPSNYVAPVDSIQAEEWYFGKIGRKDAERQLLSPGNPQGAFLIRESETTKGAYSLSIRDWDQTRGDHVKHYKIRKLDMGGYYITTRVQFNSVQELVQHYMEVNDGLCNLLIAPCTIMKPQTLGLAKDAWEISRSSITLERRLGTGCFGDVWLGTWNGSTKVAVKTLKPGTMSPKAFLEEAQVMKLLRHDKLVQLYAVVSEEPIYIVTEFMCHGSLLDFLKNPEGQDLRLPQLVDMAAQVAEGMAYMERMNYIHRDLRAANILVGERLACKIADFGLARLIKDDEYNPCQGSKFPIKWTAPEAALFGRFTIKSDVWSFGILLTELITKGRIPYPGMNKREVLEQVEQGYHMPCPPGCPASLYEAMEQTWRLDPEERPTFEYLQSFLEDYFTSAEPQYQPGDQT
Excerpt: as §1

p38-beta = p38-beta (Homo sapiens, UniProt Q15759); assay: scanMAX KINOMEscan (Eurofins); details: 1000 nM, read-out: Percent Control
Excerpt: as §1

GRK4 = GRK4 (Homo sapiens, UniProt P32298); assay: scanMAX KINOMEscan (Eurofins); details: 1000 nM, read-out: Percent Control
Excerpt: as §1

PRKG2 = PRKG2 (Homo sapiens, UniProt Q13237); assay: scanMAX KINOMEscan (Eurofins); details: 1000 nM, read-out: Percent Control
Sequence of PRKG2 (Q13237 whole entry): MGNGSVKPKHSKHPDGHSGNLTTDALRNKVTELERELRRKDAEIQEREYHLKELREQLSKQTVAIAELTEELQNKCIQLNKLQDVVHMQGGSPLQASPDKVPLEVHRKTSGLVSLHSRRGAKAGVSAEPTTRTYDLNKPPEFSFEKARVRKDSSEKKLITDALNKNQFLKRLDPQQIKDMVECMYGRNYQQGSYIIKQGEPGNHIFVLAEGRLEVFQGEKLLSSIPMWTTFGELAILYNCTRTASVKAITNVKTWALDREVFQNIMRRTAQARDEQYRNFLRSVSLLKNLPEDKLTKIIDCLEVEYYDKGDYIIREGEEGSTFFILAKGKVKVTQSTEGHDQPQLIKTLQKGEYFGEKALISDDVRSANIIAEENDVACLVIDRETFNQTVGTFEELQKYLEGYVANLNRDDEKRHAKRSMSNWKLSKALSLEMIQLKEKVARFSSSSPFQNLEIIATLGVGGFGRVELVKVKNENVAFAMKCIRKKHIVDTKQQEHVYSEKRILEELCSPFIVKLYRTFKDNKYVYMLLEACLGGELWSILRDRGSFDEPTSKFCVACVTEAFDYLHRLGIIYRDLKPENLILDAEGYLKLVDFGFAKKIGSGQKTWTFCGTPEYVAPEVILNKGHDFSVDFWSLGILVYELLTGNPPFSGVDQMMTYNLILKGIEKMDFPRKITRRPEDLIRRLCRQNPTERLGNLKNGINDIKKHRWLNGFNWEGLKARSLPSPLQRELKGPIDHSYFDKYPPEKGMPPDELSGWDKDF
Excerpt: as §1

BLK = BLK (Homo sapiens, UniProt P51451); assay: scanMAX KINOMEscan (Eurofins); details: 1000 nM, read-out: Percent Control
Excerpt: as §1

GSK3A = GSK3A (Homo sapiens, UniProt P49840); assay: scanMAX KINOMEscan (Eurofins); details: 1000 nM, read-out: Percent Control
Excerpt: as §1

RIPK2 = RIPK2 (Homo sapiens, UniProt O43353); assay: scanMAX KINOMEscan (Eurofins); details: 1000 nM, read-out: Percent Control
Excerpt: as §1

FLT3(D835H) = FLT3(D835H) (Homo sapiens, UniProt P36888, D835H); assay: biochemical; details: 1000 nM, read-out: Percent Control
EGFR(L858R,T790M) = EGFR(L858R,T790M) (Homo sapiens, UniProt P00533, L858R/T790M); assay: biochemical; details: read-out: Percent Control
Sequence of EGFR(L858R,T790M) (P00533 25-1210 T790M/L858R): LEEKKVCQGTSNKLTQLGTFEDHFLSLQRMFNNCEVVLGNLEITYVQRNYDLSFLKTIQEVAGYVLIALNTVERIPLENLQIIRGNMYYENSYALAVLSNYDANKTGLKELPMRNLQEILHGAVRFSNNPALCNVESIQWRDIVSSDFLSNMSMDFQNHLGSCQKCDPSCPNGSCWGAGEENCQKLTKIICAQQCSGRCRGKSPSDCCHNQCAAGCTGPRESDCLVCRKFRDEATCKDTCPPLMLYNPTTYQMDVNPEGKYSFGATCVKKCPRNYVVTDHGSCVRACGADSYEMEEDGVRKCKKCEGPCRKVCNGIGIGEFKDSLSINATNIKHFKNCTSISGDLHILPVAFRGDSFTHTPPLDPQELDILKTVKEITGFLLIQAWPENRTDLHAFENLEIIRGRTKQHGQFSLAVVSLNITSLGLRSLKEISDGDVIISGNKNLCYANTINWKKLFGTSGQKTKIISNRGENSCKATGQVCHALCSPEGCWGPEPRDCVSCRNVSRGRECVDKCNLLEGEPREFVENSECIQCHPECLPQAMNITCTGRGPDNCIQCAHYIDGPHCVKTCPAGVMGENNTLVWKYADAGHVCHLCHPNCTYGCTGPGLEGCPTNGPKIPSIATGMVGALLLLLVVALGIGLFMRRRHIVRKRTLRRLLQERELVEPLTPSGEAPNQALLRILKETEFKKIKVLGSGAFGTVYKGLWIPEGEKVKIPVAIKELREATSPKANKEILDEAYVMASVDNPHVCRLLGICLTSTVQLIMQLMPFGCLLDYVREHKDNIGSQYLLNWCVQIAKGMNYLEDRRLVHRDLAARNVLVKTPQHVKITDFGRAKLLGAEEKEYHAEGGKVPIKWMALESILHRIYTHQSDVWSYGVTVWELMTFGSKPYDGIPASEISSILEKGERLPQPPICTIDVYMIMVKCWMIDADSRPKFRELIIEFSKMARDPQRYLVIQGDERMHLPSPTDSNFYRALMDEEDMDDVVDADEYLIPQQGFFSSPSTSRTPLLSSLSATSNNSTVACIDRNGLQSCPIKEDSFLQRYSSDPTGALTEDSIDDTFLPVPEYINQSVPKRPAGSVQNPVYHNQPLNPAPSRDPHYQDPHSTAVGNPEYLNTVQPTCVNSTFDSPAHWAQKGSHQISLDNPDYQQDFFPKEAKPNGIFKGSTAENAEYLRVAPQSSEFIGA

KIT(A829P) = KIT(A829P) (Homo sapiens, UniProt P10721, A829P); assay: biochemical; details: compound concentration 100 nM; Entrez KIT; read-out: Percent Control
PIK3CA(H1047Y) = PIK3CA(H1047Y) (Homo sapiens, UniProt P42336, H1047Y); assay: biochemical; details: compound concentration 100 nM; Entrez PIK3CA; read-out: Percent Control
PIK3CA(M1043I) = PIK3CA(M1043I) (Homo sapiens, UniProt P42336, M1043I); assay: biochemical; details: read-out: Percent Control
[15] = target: ABL1(T315I)-phosphorylated (Homo sapiens, UniProt P00519, T315I); assay: biochemical; details: compound concentration 100 nM; Entrez ABL1; read-out: Percent Control
[16] = target: ABL1(H396P)-phosphorylated (Homo sapiens, UniProt P00519, H396P); assay: biochemical; details: read-out: Percent Control
[17] = target: ABL1(M351T)-phosphorylated (Homo sapiens, UniProt P00519, M351T); assay: biochemical; details: read-out: Percent Control

Sequence of 468 kinases including some pathogenic mutants (Homo sapiens, UniProt O14965) (O14965 whole entry, change not shown): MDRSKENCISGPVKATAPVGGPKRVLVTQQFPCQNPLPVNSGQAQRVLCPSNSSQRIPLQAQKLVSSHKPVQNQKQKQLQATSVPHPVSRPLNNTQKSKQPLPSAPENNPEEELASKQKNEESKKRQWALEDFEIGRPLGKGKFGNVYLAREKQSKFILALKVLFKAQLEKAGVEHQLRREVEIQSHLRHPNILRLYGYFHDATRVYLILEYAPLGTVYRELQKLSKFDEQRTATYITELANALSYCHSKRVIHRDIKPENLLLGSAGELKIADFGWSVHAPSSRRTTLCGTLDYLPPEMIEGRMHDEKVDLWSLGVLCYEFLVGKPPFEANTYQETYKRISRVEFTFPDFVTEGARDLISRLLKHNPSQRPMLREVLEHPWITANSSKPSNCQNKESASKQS

With `CN1C(=O)[C@@H](N2CCc3c(nn(Cc4ccccc4)c3C(N)=O)C2=O)COc2cc(Cl)ccc21` [Compound 10, (S)-2-benzyl-6-(8-chloro-5-methyl-4-oxo-2,3,4,5-tetrahydrobenzo[b][1,4]oxazepin-3-yl)-7-oxo-4,5,6,7-tetrahydro-2H-pyrazolo[3,4-c]pyridine-3-carboxamide] the remaining activity at 0.1 µM [1] was 58%, the remaining activity at 0.1 µM [2] was 77% and the remaining activity at 1 µM [3] was 100%. The remaining activity at 0.1 µM [4] was 62%, the remaining activity at 0.1 µM [5] was 100% and the remaining activity at 0.1 µM [6] was 75%. For the same compound, the remaining activity at 0.1 µM [7] was 100%, the remaining activity at 0.1 µM [8] was 72% and the remaining activity at 0.1 µM [9] was 89%. For the same compound, the remaining activity at 0.1 µM [10] was 88%, the remaining activity at 1 µM [11] was 100% and the remaining activity at 1 µM [12] was 100%. For the same compound, the remaining activity at 0.1 µM [13] was 100%, the remaining activity at 0.1 µM [14] was 64% and the remaining activity at 1 µM (EGFR(E746-A750del)) was 86%. It also gave a remaining binding at 0.1 µM (MAP3K2) of 100%, a remaining binding at 1 µM (FGR; 1000 nM) of 100% and a remaining binding at 0.1 µM (FGR; compound concentration 100 nM, Entrez FGR) of 77%. It also gave a remaining binding at 1 µM (p38-beta) of 97%, a remaining binding at 1 µM (GRK4) of 75% and a remaining binding at 1 µM (PRKG2) of 90%. It also gave a remaining binding at 1 µM (BLK) of 88%, a remaining binding at 1 µM (GSK3A) of 98% and a remaining binding at 1 µM (RIPK2) of 80%. The remaining activity at 1 µM (FLT3(D835H)) was 100%, the remaining activity at 1 µM (EGFR(L858R,T790M)) was 100% and the remaining activity at 0.1 µM (KIT(A829P)) was 86%. It also gave a remaining activity at 0.1 µM (PIK3CA(H1047Y)) of 100%, a remaining activity at 1 µM (PIK3CA(M1043I)) of 87% and a remaining activity at 0.1 µM [15] of 72%. For the same compound, the remaining activity at 1 µM [16] was 88% and the remaining activity at 1 µM [17] was 100%.
